# PubChem BioAssay AID2823 (Broad Institute, 2010)
# Calls of active or inactive are those of the source. No rule for the calls is given here.
# Molecular target: RanGTP-importin-beta complex (human Ran / KPNB1)
# Test: disruptors of RanGTP/KPNB1 binding – biochemical, FRET, CFP/YFP, cell-free homogeneous, confirmation (AID 2823)
# Conditions: CFP-Ran/YFP-importin-beta FRET ratio
row,SMILES,IC50
1,Clc1ccc(/C=C/c2ncc3ccccn23)cc1,12.5 µM
2,CC1=NC(Nc2nc(C)c3ccccc3n2)=NC(C)(C)C1,> 50 µM (inactive)
3,Cc1cccc(Oc2nc(-c3cccc([N+](=O)[O-])c3)nc3ccccc23)c1C,> 50 µM (inactive)
4,CCOC(=O)c1c(NC(=O)C2CCCCC2)sc2c1CCN(CC)C2,> 50 µM (inactive)
5,CCCn1c(O)c(C=Nc2ccccc2)sc1=S,39.4 µM
6,Cc1cccc(N2C(=O)/C(=C/c3cccnc3)SC2=S)c1,> 50 µM (inactive)
7,OCC1(Cc2cccc(Cl)c2)CCCN(Cc2ccc3cc(F)ccc3n2)C1 (stereo not drawn),> 50 µM (inactive)
8,Cc1cc(C2C(C#N)=C(N)SC(N)=C2C#N)c(C)s1,> 50 µM (inactive)
9,CCOC(=O)CNc1ncc([N+](=O)[O-])cc1C#N,> 50 µM (inactive)
10,CCn1c(SCc2nc(-c3ccccc3)no2)nnc1-c1cccs1,> 50 µM (inactive)
11,O=C(Oc1c(Br)cc(C(=S)N2CCOCC2)cc1Br)c1ccc(Cl)cc1,> 50 µM (inactive)
12,CN(C)S(=O)(=O)c1cccc(NC(=O)CNC2CCCCC2)c1,> 50 µM (inactive)
13,CCOC(=O)C1=C(N)OC2=C(C(=O)CCC2)C1c1sccc1C (stereo not drawn),> 50 µM (inactive)
14,COC(=O)c1n[nH]c2ccccc12,47.7 µM
15,CN(C)Cc1c(O)ccc2c3c(c(=O)oc12)CCCCC3,24.6 µM
16,CCCOc1ccc(Cn2ccnc2)cc1[N+](=O)[O-],> 50 µM (inactive)
17,c1ccc(-n2nnnc2-c2cnc(-c3cccnc3)nc2-c2cccs2)cc1,> 50 µM (inactive)
18,Cc1ccc2cc(C#N)c(N3CCCN(C(=S)NCCCN(C)C)CC3)nc2c1,22.6 µM
19,CCC(=O)N(C)/C=C1\Sc2ccccc2C1=O,> 50 µM (inactive)
20,O=c1c2cc(NC(=S)N3CCC(N4CCCCC4)CC3)ccc2nc2n1CCCCC2,> 50 µM (inactive)
21,CC1CC1c1ccc(/C=C(\C#N)C(=O)Nc2ccc(Cl)cc2)o1 (stereo not drawn),> 50 µM (inactive)
22,CCOC(=O)CNC(=O)C1CCCN(c2ncccn2)C1 (stereo not drawn),> 50 µM (inactive)
23,Cc1c(CCC(=O)NC2CC2)c(=O)oc2c(C)c(O)ccc12,20.8 µM
24,CCc1cc2c(COC(=O)c3c(C)noc3C)cc(=O)oc2cc1O,> 50 µM (inactive)
25,CC(=O)c1ccc(-c2cccs2)s1,34.7 µM
26,CCN1CCc2c(sc(N)c2C#N)C1,16.5 µM
27,CC(C)Sc1nc(N2CCOCC2)c2c(c1C#N)CC(C)(C)N(C)C2,46.2 µM
28,COCC(=O)Nc1nnc(COc2ccc(Cl)cc2)s1,> 50 µM (inactive)

# Other lines, results leading:
row,IC50,SMILES
1,> 50 µM (inactive),Cc1cccc(C(=O)Nc2sc(C)c(-c3ccccc3)c2C#N)c1
2,> 50 µM (inactive),COc1ccc(Cn2c(O)c(C=Nc3ccc(OC)cc3)c3ccccc3c2=O)cc1
3,> 50 µM (inactive),CCOc1ccc(OCc2ccc(C(=O)N(CC)CC)cc2)cc1
4,> 50 µM (inactive),Cc1ccc(Cn2ccc(NC(=O)c3noc4c3CCc3ccccc3-4)n2)cc1
5,25.5 µM,COC(=O)C1=C(C)NC2=C(C(=O)CCC2)C1c1cccc(C)n1 (stereo not drawn)
6,> 50 µM (inactive),CC(C)(C)NC(=O)C(c1ccco1)N(Cc1ccc(F)cc1)C(=O)c1snc(C(N)=O)c1N (stereo not drawn)
7,9.4 µM,CCOc1ccc(C(=O)c2cc3ccc(O)cc3oc2=O)cc1
8,3.62 µM,Cc1ccc2nc(NCCNC(=O)c3ccccc3)c(C#N)cc2c1
9,> 50 µM (inactive),COc1ccc(CCn2c(C)nc3ccccc3c2=O)cc1OC
10,> 50 µM (inactive),Cc1sc(NC(=O)c2ccccc2)c(C#N)c1-c1ccccc1
11,25.8 µM,N#C/C(=C\c1ccc(O)c(Br)c1)C(=O)NCc1ccccc1
12,> 50 µM (inactive),CCN1CCN(c2cc(=O)n(Cc3ccc(F)cc3)c(=O)[nH]2)CC1
13,24.8 µM,Cc1ccc(S(=O)(=O)NC(C(=O)Oc2ccc3ccc(=O)oc3c2)c2ccccc2)cc1 (stereo not drawn)
14,> 50 µM (inactive),CC(C)(C)n1cnc2cc(NCc3ccc(Br)cc3)ccc21
15,> 50 µM (inactive),Cc1ccc(C(=O)NNc2c3ccccc3nc3ccccc23)cc1
